According to the NIST ThermoML archive (doi:10.1021/je060353z):

Test: xn = mol fraction of the nth substance listed
Settings: 101 kPa, Liquid

Clc1ccccc1 [chlorobenzene] + CCCCCCO
Settings | mass density [kg/m3] | speed of sound [m/s] | viscosity [mPa·s]
298.15 K, x1 = 0.1144 | 842.629 | 1297.7 | 3.576
298.15 K, x1 = 0.2338 | 872.274 | 1289.8 | 2.746
298.15 K, x1 = 0.3573 | 904.193 | 1281.6 | 2.107
298.15 K, x1 = 0.4628 | 932.67 | 1274.8 | 1.699
298.15 K, x1 = 0.5568 | 959.077 | 1269.2 | 1.417
298.15 K, x1 = 0.6542 | 987.534 | 1264.3 | 1.184
298.15 K, x1 = 0.7457 | 1015.51 | 1260.9 | 1.008
298.15 K, x1 = 0.8353 | 1044.18 | 1259.3 | 0.873
298.15 K, x1 = 0.9171 | 1071.62 | 1260.9 | 0.788
298.15 K, x1 = 1 | 1100.97 | 1268 | 0.757
303.15 K, x1 = 0.1144 | 839.289 | 1280.6 | 3.096
303.15 K, x1 = 0.2338 | 868.705 | 1272.5 | 2.414
303.15 K, x1 = 0.3573 | 900.355 | 1264 | 1.87
303.15 K, x1 = 0.4628 | 928.591 | 1257.1 | 1.515
303.15 K, x1 = 0.5568 | 954.767 | 1251.6 | 1.274
303.15 K, x1 = 0.6542 | 982.986 | 1246.6 | 1.079
303.15 K, x1 = 0.7457 | 1010.71 | 1243.1 | 0.935
303.15 K, x1 = 0.8353 | 1039.12 | 1241.5 | 0.824
303.15 K, x1 = 0.9171 | 1066.27 | 1243.2 | 0.752
303.15 K, x1 = 1 | 1095.1 | 1249.4 | 0.714
308.15 K, x1 = 0.1144 | 835.421 | 1263.6 | 2.695
308.15 K, x1 = 0.2338 | 864.604 | 1255.4 | 2.123
308.15 K, x1 = 0.3573 | 895.988 | 1246.7 | 1.665
308.15 K, x1 = 0.4628 | 923.985 | 1239.7 | 1.369
308.15 K, x1 = 0.5568 | 949.942 | 1233.9 | 1.165
308.15 K, x1 = 0.6542 | 977.948 | 1228.9 | 0.997
308.15 K, x1 = 0.7457 | 1005.42 | 1225.4 | 0.87
308.15 K, x1 = 0.8353 | 1033.55 | 1224.3 | 0.772
308.15 K, x1 = 0.9171 | 1060.41 | 1225.8 | 0.711
308.15 K, x1 = 1 | 1089.08 | 1230.9 | 0.677
313.15 K, x1 = 0.1144 | 831.574 | 1246.5 | 2.35
313.15 K, x1 = 0.2338 | 860.561 | 1238.5 | 1.865
313.15 K, x1 = 0.3573 | 891.747 | 1229.8 | 1.478
313.15 K, x1 = 0.4628 | 919.571 | 1222.9 | 1.223
313.15 K, x1 = 0.5568 | 945.388 | 1216.7 | 1.044
313.15 K, x1 = 0.6542 | 973.227 | 1211.6 | 0.896
313.15 K, x1 = 0.7457 | 1000.53 | 1207.9 | 0.78
313.15 K, x1 = 0.8353 | 1028.46 | 1206.6 | 0.692
313.15 K, x1 = 0.9171 | 1055.09 | 1208.2 | 0.637
313.15 K, x1 = 1 | 1083.66 | 1212.6 | 0.617

CCCCCCCCCCO [decan-1-ol] + Clc1ccccc1
x2 = 0
Settings | mass density [kg/m3] | speed of sound [m/s] | viscosity [mPa·s]
298.15 K | 826.762 | 1380 | 11.83
303.15 K | 822.853 | 1365 | 9.754
308.15 K | 819.427 | 1346.1 | 8.135
313.15 K | 815.983 | 1329.3 | 6.842

CCCCCCCO [heptan-1-ol] + Clc1ccccc1
x2 = 0
Settings | mass density [kg/m3] | speed of sound [m/s] | viscosity [mPa·s]
298.15 K | 818.732 | 1327.3 | 5.944
303.15 K | 815.287 | 1313.6 | 5.069
308.15 K | 811.737 | 1293.9 | 4.333
313.15 K | 808.162 | 1277.2 | 3.726

CCCCCCO [hexan-1-ol] + Clc1ccccc1
x2 = 0
Settings | mass density [kg/m3] | speed of sound [m/s] | viscosity [mPa·s]
298.15 K | 815.23 | 1304.7 | 4.594
303.15 K | 812.118 | 1287.9 | 3.887
308.15 K | 808.482 | 1271.1 | 3.359
313.15 K | 804.811 | 1254.5 | 2.914
